# Measurements: PubChem BioAssay AID1963839 (Molecular Pharmacology Branch, DTP, NCI, 2024)
# Tested on: 817829-284-R-J1-PDC complex spheroid viability
# Assay: Anticancer human tumor 817829-284-R-J1-PDC patient-derived colon adenocarcinoma cell line growth inhibition [POLQ]
# Settings: for IC50: curve of first compound; for viability, T/C: stronger effect = lower value
# Procedure, shortened: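 PDC + HUVEC + MSC complex spheroids; POLQ inhibitors ± partner drugs; top conc. at/near clinical Cmax, else 10 microM (SN-38 1 microM), half-log dilutions; 37 degrees C, 5% CO2.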
# [1] = second compound 0.0316 µM, first compound 0.0316 µM
# [2] = second compound 0.0316 µM, first compound 0.1 µM
# [3] = second compound 0.0316 µM, first compound 0.316 µM
# [4] = second compound 0.0316 µM, first compound 1 µM
# [5] = second compound 0.0316 µM, first compound 3.16 µM
# [6] = second compound 0.0316 µM, first compound 10 µM
# [7] = second compound 0.1 µM, first compound 0.0316 µM
# [8] = second compound 0.1 µM, first compound 0.1 µM
# [9] = second compound 0.1 µM, first compound 0.316 µM
# [10] = second compound 0.1 µM, first compound 1 µM
# [11] = second compound 0.1 µM, first compound 3.16 µM
# [12] = second compound 0.1 µM, first compound 10 µM
# [13] = second compound 0.316 µM, first compound 0.0316 µM
# [14] = second compound 0.316 µM, first compound 0.1 µM
# [15] = second compound 0.316 µM, first compound 0.316 µM
# [16] = second compound 0.316 µM, first compound 1 µM
# [17] = second compound 0.316 µM, first compound 3.16 µM
# [18] = second compound 0.316 µM, first compound 10 µM
# [19] = second compound 1 µM, first compound 0.0316 µM
# [20] = second compound 1 µM, first compound 0.1 µM
# [21] = second compound 1 µM, first compound 0.316 µM
# [22] = second compound 1 µM, first compound 1 µM
# [23] = second compound 1 µM, first compound 3.16 µM
# [24] = second compound 1 µM, first compound 10 µM
# [25] = second compound 3.16 µM, first compound 0.0316 µM
# [26] = second compound 3.16 µM, first compound 0.1 µM
# [27] = second compound 3.16 µM, first compound 0.316 µM
# [28] = second compound 3.16 µM, first compound 1 µM
# [29] = second compound 3.16 µM, first compound 3.16 µM
# [30] = second compound 3.16 µM, first compound 10 µM
# [31] = second compound 10 µM, first compound 0.0316 µM
# [32] = second compound 10 µM, first compound 0.1 µM
# [33] = second compound 10 µM, first compound 0.316 µM
# [34] = second compound 10 µM, first compound 1 µM
# [35] = second compound 10 µM, first compound 3.16 µM
# [36] = second compound 10 µM, first compound 10 µM
# 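Further: spheroids exposed to compounds for 7 days.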
# 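Wherever viability, T/C is given: 100% = DMSO vehicle-treated spheroids.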
structure (smiles),measurement,setting,value
CC(=O)O[C@H]1C(=O)[C@@]2(C)[C@H]([C@H](OC(=O)c3ccccc3)[C@]3(O)C[C@H](OC(=O)[C@H](O)[C@@H](NC(=O)c4ccccc4)c4ccccc4)C(C)=C1C3(C)C)[C@]1(OC(C)=O)CO[C@@H]1C[C@@H]2O + COC1C(OC(N)=O)C(O)C(Oc2ccc3c(O)c(NC(=O)c4ccc(O)c(CC=C(C)C)c4)c(=O)oc3c2C)OC1(C)C,IC50,second compound 0.0316 µM,< 9.49 nM
same,IC50,second compound 0.1 µM,< 9.49 nM
same,IC50,second compound 0.316 µM,< 9.49 nM
same,IC50,second compound 1 µM,< 9.49 nM
same,IC50,second compound 3.16 µM,< 9.49 nM
same,IC50,second compound 10 µM,< 9.49 nM
same,"viability, T/C","second compound 0.0316 µM, first compound 0.00949 µM",6.3%
same,"viability, T/C","second compound 0.0316 µM, first compound 0.03 µM",5.64%
same,"viability, T/C","second compound 0.0316 µM, first compound 0.0949 µM",4.85%
same,"viability, T/C","second compound 0.0316 µM, first compound 0.3 µM",4.95%
same,"viability, T/C","second compound 0.0316 µM, first compound 0.949 µM",4.91%
same,"viability, T/C","second compound 0.0316 µM, first compound 3 µM",5.21%
same,"viability, T/C","second compound 0.1 µM, first compound 0.00949 µM",5.46%
same,"viability, T/C","second compound 0.1 µM, first compound 0.03 µM",4.45%
same,"viability, T/C","second compound 0.1 µM, first compound 0.0949 µM",4.97%
same,"viability, T/C","second compound 0.1 µM, first compound 0.3 µM",5.08%
same,"viability, T/C","second compound 0.1 µM, first compound 0.949 µM",4.85%
same,"viability, T/C","second compound 0.1 µM, first compound 3 µM",5.2%
same,"viability, T/C","second compound 0.316 µM, first compound 0.00949 µM",5.79%
same,"viability, T/C","second compound 0.316 µM, first compound 0.03 µM",5.7%
same,"viability, T/C","second compound 0.316 µM, first compound 0.0949 µM",5.32%
same,"viability, T/C","second compound 0.316 µM, first compound 0.3 µM",4.7%
same,"viability, T/C","second compound 0.316 µM, first compound 0.949 µM",4.56%
same,"viability, T/C","second compound 0.316 µM, first compound 3 µM",4.8%
same,"viability, T/C","second compound 1 µM, first compound 0.00949 µM",5.74%
same,"viability, T/C","second compound 1 µM, first compound 0.03 µM",5.47%
same,"viability, T/C","second compound 1 µM, first compound 0.0949 µM",5.82%
same,"viability, T/C","second compound 1 µM, first compound 0.3 µM",4.18%
same,"viability, T/C","second compound 1 µM, first compound 0.949 µM",4.64%
same,"viability, T/C","second compound 1 µM, first compound 3 µM",5.33%
same,"viability, T/C","second compound 3.16 µM, first compound 0.00949 µM",5.62%
same,"viability, T/C","second compound 3.16 µM, first compound 0.03 µM",5.09%
same,"viability, T/C","second compound 3.16 µM, first compound 0.0949 µM",4.79%
same,"viability, T/C","second compound 3.16 µM, first compound 0.3 µM",4.48%
same,"viability, T/C","second compound 3.16 µM, first compound 0.949 µM",4.83%
same,"viability, T/C","second compound 3.16 µM, first compound 3 µM",4.67%
same,"viability, T/C","second compound 10 µM, first compound 0.00949 µM",5.28%
same,"viability, T/C","second compound 10 µM, first compound 0.03 µM",5.23%
same,"viability, T/C","second compound 10 µM, first compound 0.0949 µM",5.99%
same,"viability, T/C","second compound 10 µM, first compound 0.3 µM",5.05%
same,"viability, T/C","second compound 10 µM, first compound 0.949 µM",4.95%
same,"viability, T/C","second compound 10 µM, first compound 3 µM",5.41%
COc1cc(C2c3cc4c(cc3C(OC3OC5COC(C)OC5C(O)C3O)C3COC(=O)C23)OCO4)cc(OC)c1O (stereo unspecified) + COC1C(OC(N)=O)C(O)C(Oc2ccc3c(O)c(NC(=O)c4ccc(O)c(CC=C(C)C)c4)c(=O)oc3c2C)OC1(C)C,IC50,second compound 0.0316 µM,< 31.6 nM
same,IC50,second compound 0.1 µM,62.2 nM
same,IC50,second compound 0.316 µM,38.7 nM
same,IC50,second compound 1 µM,77.8 nM
same,IC50,second compound 3.16 µM,74.9 nM
same,IC50,second compound 10 µM,61.4 nM
same,"viability, T/C",[1],47.9%
same,"viability, T/C",[2],31.3%
same,"viability, T/C",[3],16.2%
same,"viability, T/C",[4],14.4%
same,"viability, T/C",[5],11.2%
same,"viability, T/C",[6],5.8%
same,"viability, T/C",[7],74.1%
same,"viability, T/C",[8],31.2%
same,"viability, T/C",[9],19.5%
same,"viability, T/C",[10],19.1%
same,"viability, T/C",[11],11.8%
same,"viability, T/C",[12],6.51%
same,"viability, T/C",[13],53.6%
same,"viability, T/C",[14],34.5%
same,"viability, T/C",[15],15.2%
same,"viability, T/C",[16],15.6%
same,"viability, T/C",[17],12.6%
same,"viability, T/C",[18],6.15%
same,"viability, T/C",[19],79.2%
same,"viability, T/C",[20],42.2%
same,"viability, T/C",[21],15.8%
same,"viability, T/C",[22],16.3%
same,"viability, T/C",[23],11.7%
same,"viability, T/C",[24],6.63%
same,"viability, T/C",[25],83.7%
same,"viability, T/C",[26],38.8%
same,"viability, T/C",[27],18.1%
same,"viability, T/C",[28],19.1%
same,"viability, T/C",[29],13.6%
same,"viability, T/C",[30],6.38%
same,"viability, T/C",[31],68.8%
same,"viability, T/C",[32],36.6%
same,"viability, T/C",[33],17.9%
same,"viability, T/C",[34],20.1%
same,"viability, T/C",[35],11.6%
same,"viability, T/C",[36],6.29%
COc1cccc2c1C(=O)c1c(O)c3c(c(O)c1C2=O)CC(O)(C(=O)CO)CC3OC1CC(N)C(O)C(C)O1 (stereo unspecified) + COC1C(OC(N)=O)C(O)C(Oc2ccc3c(O)c(NC(=O)c4ccc(O)c(CC=C(C)C)c4)c(=O)oc3c2C)OC1(C)C,IC50,second compound 0.0316 µM,110 nM
same,IC50,second compound 0.1 µM,< 31.6 nM
same,IC50,second compound 0.316 µM,< 31.6 nM
same,IC50,second compound 1 µM,109 nM
same,IC50,second compound 3.16 µM,143 nM
same,IC50,second compound 10 µM,< 31.6 nM
same,"viability, T/C",[1],17.6%
same,"viability, T/C",[2],90.5%
same,"viability, T/C",[3],5.53%
same,"viability, T/C",[4],1.37%
same,"viability, T/C",[5],0.16%
same,"viability, T/C",[6],0.52%
same,"viability, T/C",[7],16.5%
same,"viability, T/C",[8],75.1%
same,"viability, T/C",[9],6.74%
same,"viability, T/C",[10],0.41%
same,"viability, T/C",[11],0.25%
same,"viability, T/C",[12],0.49%
same,"viability, T/C",[13],14.3%
same,"viability, T/C",[14],82%
same,"viability, T/C",[15],7.31%
same,"viability, T/C",[16],0.98%
same,"viability, T/C",[17],0.19%
same,"viability, T/C",[18],0.45%
same,"viability, T/C",[19],22.7%
same,"viability, T/C",[20],84.3%
same,"viability, T/C",[21],6.03%
same,"viability, T/C",[22],1.44%
same,"viability, T/C",[23],0.19%
same,"viability, T/C",[24],0.51%
same,"viability, T/C",[25],21.1%
same,"viability, T/C",[26],119%
same,"viability, T/C",[27],6.03%
same,"viability, T/C",[28],0.63%
same,"viability, T/C",[29],0.27%
same,"viability, T/C",[30],0.51%
same,"viability, T/C",[31],15.7%
same,"viability, T/C",[32],83.3%
same,"viability, T/C",[33],5.98%
same,"viability, T/C",[34],0.49%
same,"viability, T/C",[35],0.31%
same,"viability, T/C",[36],0.47%
